The nature of data set [1]: collision cross section (TIMS, N2 drift gas) of the primary ion; higher = larger gas-phase ion size.
The nature of data set [2]: reversed-phase LC retention time (C18, 15 min MeOH gradient); higher = more hydrophobic / later elution.
The mark [3] stands for this setting: ionization mode: ESI+, ion species: [M+H]+.
Setting [4] is: ionization mode: ESI-, ion species: [M-H]-.

Structures can show the parent of a compound that is named as a salt.

Consider `O=C(O)c1ccc(-c2ccccc2-c2nnn[nH]2)cc1` [Valsartan acid], for which the values for the collision cross section in data set [1] (setting [3]) and in data set [1] (setting [4]) were 161.62 Å² and 162.3 Å², respectively. The “reversed-phase LC retention time” value was 11.2 min in data set [2] (setting [3]) and 6.27 min in data set [2] (setting [4]).
The like results for `CCCCC(=O)N(Cc1ccc(-c2ccccc2-c2nn[nH]n2)cc1)C(C(=O)O)C(C)C` (stereo unspecified) [Valsartan] were, in that order, 204.42 Å², 203.89 Å², 14.4 min and 11.8 min.
The like results for `CCCc1nc(C)c2c(=O)nc(-c3cc(S(=O)(=O)N4CCN(CC)CC4)ccc3OCC)[nH]n12` [Vardenafil] were, in that order, 227.75 Å², 219.66 Å², 12 min and 14.9 min.
In the case of `CN(C)CC(c1ccc(O)cc1)C1(O)CCCCC1` (stereo unspecified) [Venlafaxine-O-desmethyl], the collision cross section is 166.78 Å² in data set [1] (setting [3]) and 172.85 Å² in data set [1] (setting [4]). In addition, the “reversed-phase LC retention time” value in data set [2] (setting [3]) was found to be 8.96 min; in data set [2] (setting [4]), 11.3 min.
Take `COc1ccc(CCN(C)CCCC(C#N)(c2ccc(OC)c(OC)c2)C(C)C)cc1OC` (stereo unspecified) [Verapamil]: the collision cross section in data set [1] (setting [3]) is given as 208.22 Å². The “reversed-phase LC retention time” value in data set [2] (setting [3]) was 12.2 min.
Turning to `CC(=O)CC(c1ccccc1)c1c(O)c2ccccc2oc1=O` (stereo unspecified) [Warfarin], the collision cross section in data set [1] (setting [3]) is recorded as 168.14 Å²; in data set [1] (setting [4]) it was 171.91 Å². Besides, the “reversed-phase LC retention time” value is 14.1 min in data set [2] (setting [3]) and 10.1 min in data set [2] (setting [4]).
As for `C[C@H]1CCCC(=O)CCC/C=C/c2cc(O)cc(O)c2C(=O)O1` [Zearalenone], in data set [1] (setting [4]), the collision cross section came out at 178.16 Å². The “reversed-phase LC retention time” value in data set [2] (setting [4]) is 14.4 min.
With `O=C1Cc2cc(CCN3CCN(c4nsc5ccccc45)CC3)c(Cl)cc2N1` [Ziprasidone], the collision cross section in data set [1] (setting [3]) is 192.95 Å². For the same molecule, the “reversed-phase LC retention time” value in data set [2] (setting [3]) came to 11.2 min.
In data set [1] (setting [4]), `Cc1ccc(S(=O)(=O)O)c(C)c1` [m-Xylene-4-sulfonic acid] came in with a collision cross section of 136.84 Å². Also, the “reversed-phase LC retention time” value in data set [2] (setting [4]) is 7.68 min.
The molecule `Cc1cc(-c2ccc(N)c(C)c2)ccc1N` [o-Tolidine] registered a collision cross section in data set [1] (setting [3]) of 165.69 Å². Besides, in data set [2] (setting [3]), the “reversed-phase LC retention time” value came out at 7.76 min.
Consider `Cc1cc(O)ccc1Cl` [p-Chlorocresol], for which, in data set [1] (setting [4]), the collision cross section stood at 122.21 Å². Further, the “reversed-phase LC retention time” value in data set [2] (setting [4]) was found to be 11.6 min.
The like results for `Cc1ccc(S(N)(=O)=O)cc1` [p-Toluenesulfonamide] were, in that order, 134.47 Å² and 8.4 min.
In data set [1] (setting [4]), `Cc1ccc(OS(=O)(=O)[O-])cc1` [p-Tolyl Sulfate] displayed a collision cross section of 135.45 Å². Besides, in data set [2] (setting [4]), the “reversed-phase LC retention time” value stood at 7.34 min.

(Values after the supplement of paper PMC12613149.)
